Test results from patent US20250074911A1, “MACROCYCLIC BTK INHIBITORS” (Crossfire Oncology Holding B.V., priority 2021, published 2025).
Where “and” joins values, the source holds several entries; their conditions need not be identical. Equal values may be shown once.

What was measured:
[1] = tested on: REC-1 T474I cell lines; test: Cell proliferation assay REC-1 BTK T474I knock-in cells (ATPlite, 72 hours); format: cell-based; conditions: Homo sapiens, Rec1; 72 hours; read-out: IC50 REC-1 T474I
In short: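 REC-1 cells carrying CRISPR knock-in mutant BTK, single-cell cloned and sequence-confirmed, were exposed to compound for 72 h and read by ATPlite luminescence. Percentage growth was calculated against the signal at the start of incubation and against untreated 0.3% DMSO wells as maximum growth.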

[2] = biological target: full-length wt-BTK enzyme (Homo sapiens (Human), UniProt Q06187); test: Biochemical kinase assay wt-BTK (IMAP)
Chain of full-length wt-BTK enzyme (Q06187 whole entry): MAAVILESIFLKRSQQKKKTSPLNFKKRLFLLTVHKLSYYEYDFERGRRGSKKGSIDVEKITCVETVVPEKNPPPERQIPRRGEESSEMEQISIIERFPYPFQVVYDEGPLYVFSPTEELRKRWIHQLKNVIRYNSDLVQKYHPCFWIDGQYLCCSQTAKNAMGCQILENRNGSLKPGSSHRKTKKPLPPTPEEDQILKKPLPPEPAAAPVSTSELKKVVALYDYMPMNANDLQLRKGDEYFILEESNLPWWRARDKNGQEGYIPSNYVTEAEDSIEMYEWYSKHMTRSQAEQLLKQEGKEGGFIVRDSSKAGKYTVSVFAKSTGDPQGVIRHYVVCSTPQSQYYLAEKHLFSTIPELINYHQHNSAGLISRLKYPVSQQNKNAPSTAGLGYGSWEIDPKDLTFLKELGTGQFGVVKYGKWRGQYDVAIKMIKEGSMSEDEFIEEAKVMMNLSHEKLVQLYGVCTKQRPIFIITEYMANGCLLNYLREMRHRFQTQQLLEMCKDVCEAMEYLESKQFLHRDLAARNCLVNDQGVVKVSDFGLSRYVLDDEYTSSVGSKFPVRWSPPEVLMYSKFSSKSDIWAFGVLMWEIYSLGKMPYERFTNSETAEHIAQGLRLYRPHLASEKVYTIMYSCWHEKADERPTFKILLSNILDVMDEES
In short: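 IMAP fluorescence polarization assay: 1.2 nM enzyme pre-incubated 1 h with compound at room temperature, then 50 nM fluorescein-labeled MBP-derived peptide and 4 μM ATP added. Reaction ran 2 h at room temperature in the dark before quenching with IMAP binding solution.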

[3] = biological target: BTK T474S (Homo sapiens (Human), UniProt Q06187, T474S); test: Binding kinetics measurements (Surface Plasmon Resonance) on BTK T474S; conditions: for residence time: SPR binding kinetics, BTK T474S, read-out: Tau (h) BTK T474S (Act), target residence time (converted); for Kd: binding affinity by Surface Plasmon Resonance (SPR)
Chain of BTK T474S (Q06187 whole entry T474S): as the sequence (Q06187 whole entry) above, with T474S counted along it
In short: (§1)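 Biotinylated BTK captured on streptavidin chips (4° C; free streptavidin blocked with biocytin); runs at 22° C in buffer with 1% DMSO, 30 μl/min. Single cycle kinetics, five injections rising over 3.16-316 nM; double-referenced sensorgrams fitted, two-state model for induced fit, duplicate constants geometrically averaged.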

[4] = tested on: wt-REC-1 mantle cell lymphoma cells; test: Cell proliferation assay wt-REC-1 (ATPlite, 72 hours); format: cell-based; conditions: 72 h; read-out: IC50 wt-REC-1
In short: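 Luminescent viability read over 72 h, start-of-incubation signal recorded separately to separate growth from cell death. Percentage growth referenced to compound-free 0.3% DMSO wells; IC50 from 4-parameter logistic fit.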

[5] = biological target: BTK T316A (Homo sapiens (Human), UniProt Q06187, T316A); test: Binding kinetics measurements (Surface Plasmon Resonance) on BTK T316A; conditions: for Kd: binding affinity by Surface Plasmon Resonance (SPR); for Tau (h) BTK T316A (Act): target residence time, SPR
Chain of BTK T316A (Q06187 whole entry T316A): as the sequence (Q06187 whole entry) above, with T316A counted along it
In short: as §1

[6] = biological target: wt-BTK (Homo sapiens (Human), UniProt Q06187); test: Binding kinetics measurements (Surface Plasmon Resonance) on wt-BTK; conditions: for Kd: binding affinity by Surface Plasmon Resonance (SPR); for Tau (h) wt-BTK (Act): target residence time, SPR
Chain of wt-BTK (Q06187 whole entry): as the sequence (Q06187 whole entry) above
In short: as §1

[7] = biological target: BTK C481S (Homo sapiens (Human), UniProt Q06187, C481S); test: Binding kinetics measurements (Surface Plasmon Resonance) on BTK C481S; conditions: for Kd: binding affinity by Surface Plasmon Resonance (SPR); for Tau (h) BTK C418S (Act): target residence time for BTK C481S, SPR
Chain of BTK C481S (Q06187 whole entry C481S): as the sequence (Q06187 whole entry) above, with C481S counted along it
In short: as §1

[8] = tested on: wt-TMD8 diffuse large B-cell lymphoma cells; test: Cell proliferation assay wt-TMD8 (ATPlite, 120 hours); format: cell-based; conditions: B-cell; wt-TMD8 cells, 120 hours, ATPlite; read-out: IC50 wt-TMD8
In short: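 wt-TMD8 DLBCL cells, 1600 per well in RPMI-1640 with 10% FBS, rested ≥5 h then exposed to compound for 120 h at 37° C, 5% CO2. Viability read by ATPlite luminescence; percentage growth calculated relative to start-of-incubation signal and untreated 0.3% DMSO maximum growth.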

[9] = biological target: BTK T474I (Homo sapiens (Human), UniProt Q06187, T474I); test: Binding kinetics measurements (Surface Plasmon Resonance) on BTK T474I; conditions: for Kd: binding affinity by Surface Plasmon Resonance (SPR); for Tau (h) BTK T474I (Act): target residence time, SPR
Chain of BTK T474I (Q06187 whole entry T474I): as the sequence (Q06187 whole entry) above, with T474I counted along it
In short: as §1

[10] = biological target: full-length BTK C481S enzyme (Homo sapiens (Human), UniProt Q06187, C481S); test: Biochemical kinase assay BTK C481S (IMAP)
Chain of full-length BTK C481S enzyme (Q06187 whole entry C481S): as the sequence (Q06187 whole entry) above, with C481S counted along it
In short: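 Full-length BTK C481S (1.2 nM) was pre-incubated with compound for 1 h at room temperature in the dark, then reacted with fluorescein-labelled MBP-derived peptide (50 nM) and ATP (7 μM) for 2 h. Reactions were quenched with IMAP binding solution, and IC50 values were derived from fluorescence polarization.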

Structure (SMILES)	IC50 [1] [nM]	IC50 [2] [nM]	residence time [3] [h]	Kd [3] [nM]	IC50 [4] [nM]	Kd [5] [nM]	Tau (h) BTK T316A (Act) [5] [h]	Kd [6] [nM]	Tau (h) wt-BTK (Act) [6] [h]	Kd [7] [nM]	Tau (h) BTK C418S (Act) [7] [h]	IC50 [8] [nM]	Kd [9]	Tau (h) BTK T474I (Act) [9] [h]	IC50 [10] [nM]
C[C@@H]1CCn2nc(-c3ccc(C(=O)Nc4cc(C(F)(F)F)ccn4)cc3)c3c(N)ncc(c32)/C=C/COCCC(=O)N1 [Example 71]	100 to 500	< 5	4.32	< 3	< 100	< 5	4.64	< 5	7.08	< 5	4.52	< 100	< 2 nM	0.52	< 5
C[C@@H]1CCn2nc(-c3ccc(C(=O)Nc4cc(C(F)(F)F)ccn4)cc3)c3c(N)ncc(c32)/C=C/CCCC(=O)N1 [Example 76]	500 to 10000	< 5	1.85	< 3	100 to 1000	< 5	–	< 5	0.97	< 5	1.63	< 100	10 to 50 nM and < 5 nM	–	< 5
Nc1ncc2c3c1c(-c1ccc(C(=O)Nc4cc(C(F)(F)F)ccn4)cc1)nn3[C@@H]1CCCN(C1)C(=O)CCCCCC/C=C/2 [Example 79]	100 to 500	< 5	6.2	< 3	< 100	< 5	3.23	< 5	8.24	< 5	7.11	< 100	< 2 nM	1.80	< 5
Nc1ncc2c3c1c(-c1ccc(C(=O)Nc4cc(C(F)(F)F)ccn4)cc1)nn3[C@@H]1CCCN(C1)C(=O)CCCCCC(O)/C=C/2 (some centres unmarked) [Example 83]	500 to 10000	< 5	3.04	< 3	< 100	< 5	1.36	< 5	2.95	< 5	4.44	< 100	< 2 nM	–	< 5
Nc1ncc2c3c1c(-c1ccc(C(=O)Nc4cc(C(F)(F)F)ccn4)cc1)nn3[C@@H]1CCC[C@H](C1)C(=O)NCCCC/C=C\C2 [Example 85b]	100 to 500	< 5	4.36	< 3	< 100	–	2.50	< 5	4.08	< 5	7.12	< 100	10 to 50 nM and < 5 nM	–	< 5
Nc1ncc2c3c1c(-c1ccc(C(=O)Nc4ccccn4)cc1)nn3[C@@H]1CCC[C@H](C1)C(=O)NCCCC/C=C\C2 [Example 87b]	100 to 500	< 5	–	< 3	< 100	< 5	–	< 5	–	< 5	–	< 100	10 to 50 nM and < 5 nM	–	< 5
Nc1ncc2c3c1c(-c1ccc(C(=O)Nc4ccccn4)cc1)nn3[C@@H]1CCC[C@H](C1)C(=O)NCCCCC/C=C\C2 [Example 88b]	500 to 10000	< 5	–	< 3	< 100	< 5	–	< 5	1.37	< 5	1.44	< 100	10 to 50 nM and < 5 nM	–	< 5
